From patent publication US20260308149A1, “NOVEL CARBOXAMIDE DERIVATIVES” (ANGELINI PHARMA S.P.A., priority 2023, published 2026) come the findings set out here.

SMILES strings stand for the structures.

T1 sequence (O43526 whole entry): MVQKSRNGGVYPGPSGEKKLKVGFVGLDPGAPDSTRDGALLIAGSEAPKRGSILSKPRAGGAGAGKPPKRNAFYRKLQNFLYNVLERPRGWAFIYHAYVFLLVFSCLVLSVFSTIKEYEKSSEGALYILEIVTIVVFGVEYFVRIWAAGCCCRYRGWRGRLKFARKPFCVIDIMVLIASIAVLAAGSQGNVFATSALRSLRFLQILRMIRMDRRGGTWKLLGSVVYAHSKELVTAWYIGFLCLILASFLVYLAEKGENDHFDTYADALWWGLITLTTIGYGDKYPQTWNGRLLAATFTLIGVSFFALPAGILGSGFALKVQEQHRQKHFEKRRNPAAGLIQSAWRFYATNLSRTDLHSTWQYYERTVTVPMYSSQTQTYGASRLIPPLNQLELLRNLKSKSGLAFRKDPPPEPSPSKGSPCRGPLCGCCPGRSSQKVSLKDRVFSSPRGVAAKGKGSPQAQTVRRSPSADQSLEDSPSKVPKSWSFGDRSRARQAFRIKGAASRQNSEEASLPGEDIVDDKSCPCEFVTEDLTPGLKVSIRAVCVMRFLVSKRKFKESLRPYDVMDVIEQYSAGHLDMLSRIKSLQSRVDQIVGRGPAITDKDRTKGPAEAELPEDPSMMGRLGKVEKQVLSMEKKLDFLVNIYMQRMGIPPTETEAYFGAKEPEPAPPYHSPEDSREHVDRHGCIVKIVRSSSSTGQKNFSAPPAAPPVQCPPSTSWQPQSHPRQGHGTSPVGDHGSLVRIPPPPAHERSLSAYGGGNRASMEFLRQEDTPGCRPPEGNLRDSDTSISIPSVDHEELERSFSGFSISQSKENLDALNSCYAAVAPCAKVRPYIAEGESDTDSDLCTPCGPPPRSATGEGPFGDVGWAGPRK

This test has as its target T1, human Kv7.2 (Homo sapiens, UniProt O43526).
T1 construct: expressed in transfected cells
Put plainly: activation (potentiation) of Kv7.2 current, SyncroPatch 384 electrophysiology in CHO cells stably expressing human Kv7.2. In kind it is cell-based. The note with it: human Kv7.2 in CHO cells; in presence of 5.6 μM zinc pyrithione; % activation relative to 30 μM ML-213. In a few lines:
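CHO cells stably expressing human Kv7.2 were recorded by automated patch clamp, holding at −60 mV with steps to −30, 40 and −90 mV; current was read at the −90 mV step. Compounds were added after 5.6 μM zinc pyrithione pre-activation. % activation was normalised between 30 μM ML-213 (max) and TEA+XE-991 (leak), with EC50 from a logistic fit.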
In general, EC50 refers to the concentration needed to bring the measured effect to its halfway point. `O=C(NCC1(c2cccc(Cl)c2)CCO1)NC1CC2CCC1C2` (racemic) [Example 54, 1-[[2-(3-chlorophenyl)oxetan-2-yl]methyl]-3-[rac-(1S,2S,4R)-norbornan-2-yl]urea]: the EC50 came to 190 nM.

For `O=C(NCC1(c2cccc(OC(F)F)n2)CCO1)[C@H]1C[C@@H]1C(F)(F)F` (stereo partly drawn) [Example 130, (1S,2S)—N-[[2-[6-(difluoromethoxy)-2-pyridyl]oxetan-2-yl]methyl]-2-(trifluoromethyl)cyclopropanecarboxamide], the EC50 is 680 nM.

With `CO[C@@](C)(CNC(=O)[C@@H]1C[C@H]1C1CC1)c1cccc(Cl)c1` (mixture of isomers) [Example 79, (1RS,2SR)—N-[(2R)-2-(3-chlorophenyl)-2-methoxy-propyl]-2-cyclopropyl-cyclopropanecarboxamide], the EC50 was 1120 nM.

With `CO[C@@](C)(CNC(=O)C1CC12CCC(F)(F)CC2)c1cccc(Cl)c1` (stereo partly drawn) [Example 83, N-[(2R)-2-(3-chlorophenyl)-2-methoxy-propyl]-6,6-difluoro-spiro[2.5]octane-2-carboxamide], the EC50 came to 380 nM.

Turning to `N#Cc1cccc([C@]2(CNC(=O)C3CCCC34CCC4)CCO2)c1` (stereo partly drawn) [Example 104, N-[[(2S)-2-(3-cyanophenyl)oxetan-2-yl]methyl]spiro[3.4]octane-8-carboxamide], the EC50 is 510 nM.

Turning to `O=C(NCC1CCCCO1)NCC1(c2cccc(Cl)c2)CC1` (stereo not drawn) [Example 15, 1-[[1-(3-chlorophenyl)cyclopropyl]meth-yl]-3-(tetrahydropyran-2-ylmethyl)urea], the EC50 worked out at 6920 nM.

As to `COC(C)(CNC(=O)Nc1cccc(OC(F)(F)F)c1)c1cccc(Cl)c1` (stereo not drawn) [Example 29, 1-[2-(3-chlorophenyl)-2-methoxy-propyl]-3-[3-(trifluoromethoxy)phenyl]urea], the EC50 was determined as 5690 nM.

With `[2H]C([2H])([2H])OC(C)(CNC(=O)NC1CCCC1)c1cccc(Cl)c1` (stereo not drawn) [Example 26, 1-[2-(3-chlorophenyl)-2-(trideuteriomethoxy)propyl]-3-cyclopentyl-urea], the EC50 worked out at 4010 nM.

With `O=C(CC1(C(F)(F)F)CC1)NCC1(c2cccc(OC(F)F)n2)CCO1` (stereo not drawn) [Example 132, N-[[2-[6-(difluoromethoxy)-2-pyridyl]oxetan-2-yl]methyl]-2-[1-(trifluoromethyl)cyclopropyl]acetamide], the EC50 worked out at 8240 nM.

Consider `COc1cccc(NC(=O)NCC2(c3cccc(Cl)c3)CCO2)c1` (stereo not drawn) [Example 50, 1-[[2-(3-chlorophenyl)oxetan-2-yl]methyl]-3-(3-methoxyphenyl)urea], for which the EC50 came to 1650 nM.

On to `O=C(CC1CCCCC1)NCC1(c2cccc(Cl)c2)CCO1` (stereo not drawn) [Example 57, N-[[2-(3-chlorophenyl)oxetan-2-yl]methyl]-2-cyclohexyl-acetamide], for which the EC50 turned out to be 430 nM.

In the case of `O=C(NC(CO)C1(c2cccc(Cl)c2)CC1)[C@H]1C[C@@H]1c1ccccc1` (stereo partly drawn) [Example 86, (1S,2S)—N-[1-[1-(3-chlorophenyl)cyclopropyl]-2-hydroxy-ethyl]-2-phenyl-cyclopropanecarboxamide], the EC50 turned out to be 5620 nM.

On to `CC(C)OC(CNC(=O)NC1CCCC1)c1cccc(Br)c1` (stereo not drawn) [Example 24, 1-[2-(3-bromophenyl)-2-isopropoxy-ethyl]-3-cyclopentyl-urea], for which the EC50 worked out at 2920 nM.

In the case of `N#Cc1cccc([C@]2(CNC(=O)C(F)C3CC4CCC3C4)CCO2)c1` (stereo partly drawn) [Example 131, N-[[(2S)-2-(3-cyanophenyl)oxetan-2-yl]methyl]-2-fluoro-2-norbornan-2-yl-acetamide], the EC50 came out at 5950 nM.

`N#Cc1cccc(C2(CNC(=O)[C@H]3C[C@@H]3c3ccccc3)CCC(=O)O2)c1` (stereo partly drawn) [Example 88, (1S,2S)—N-[[2-(3-cyanophenyl)-5-oxo-tetrahydrofuran-2-yl]methyl]-2-phenyl-cyclopropanecarboxamide]: the EC50 came to 200 nM.

As for `N#Cc1cccc(C2(CNC(=O)CC3CCCCC3)OCC2(F)F)c1` (stereo not drawn) [Example 91, N-[[2-(3-cyanophenyl)-3,3-difluoro-oxetan-2-yl]methyl]-2-cyclohexyl-acetamide], the concentration giving a half-maximal response (EC50) stood at 1120 nM.

In the case of `O=C(NCC1(c2cccc(OC(F)F)n2)CCO1)[C@H]1C[C@@H]1c1ccccc1` (stereo partly drawn) [Example 99, (1S,2S)—N-[[2-[6-(difluoromethoxy)-2-pyridyl]oxetan-2-yl]methyl]-2-phenyl-cyclopropanecarboxamide], the EC50 is 230 nM.

For `O=C(NCC(OCC(F)(F)F)c1cccc(Cl)c1)NC1C[C@H]2CC[C@@H]1C2` (mixture of isomers) [Example 45, 1-[2-(3-chlorophenyl)-2-(2,2,2-trifluoroethoxy)ethyl]-3-[rac-(1R,4S)-norbornan-2-yl]urea], the EC50 was 790 nM.

On to `O=C(NCC1CCCC1)NCC1(c2cccc(Cl)c2)CCC(=O)O1` (stereo not drawn) [Example 75, 1-[[2-(3-chlorophenyl)-5-oxo-tetrahydrofuran-2-yl]methyl]-3-(cyclopentylmethyl)urea], for which the EC50 was 290 nM.

For the molecule `O=C(NCC1(c2cccc(OC(F)F)n2)CCO1)C1CC12CCC(F)(F)CC2` (stereo not drawn) [Example 120, N-[[2-[6-(difluoromethoxy)-2-pyridyl]oxetan-2-yl]methyl]-6,6-difluoro-spiro[2.5]octane-2-carboxamide], the EC50 came out at 260 nM.

Take `O=C(NC[C@]1(c2cccc(Cl)c2)CCO1)[C@H]1C[C@@H]1c1ccccc1` [Example 39, (1S,2S)-N-[[(2R)-2-(3-chlorophenyl)oxetan-2-yl]methyl]-2-phenyl-cyclopropanecarboxamide]: the EC50 is 730 nM.

With `COC(C)(CNC(=O)NCC1CCCC1)c1cccc(Cl)c1` (single isomer, unassigned) [Example 71], the EC50 worked out at 530 nM.

As to `N#Cc1cc(C2(CNC(=O)[C@H]3C[C@@H]3c3ccccc3)CCO2)ccc1F` (stereo partly drawn) [Example 125, (1S,2S)—N-[[2-(3-cyano-4-fluoro-phenyl)oxetan-2-yl]methyl]-2-phenyl-cyclopropanecarboxamide], the EC50 was 2190 nM.

In the case of `N#Cc1cccc([C@]2(CNC(=O)[C@H]3C[C@@H]3c3ccccn3)CCO2)c1` (mixture of isomers) [Example 124, (1SR,2SR)—N-[[(2S)-2-(3-cyanophenyl)oxetan-2-yl]methyl]-2-(2-pyridyl)cyclopropanecarboxamide], the EC50 stood at 6010 nM.

In the case of `CO[C@@](C)(CNC(=O)[C@@H]1C[C@H]1C1CCCC1)c1cccc(Cl)c1` (mixture of isomers) [Example 80, (1RS,2SR)—N-[(2R)-2-(3-chlorophenyl)-2-methoxy-propyl]-2-cyclopentyl-cyclopropanecarboxamide], the EC50 worked out at 220 nM.

`N#Cc1cccc([C@]2(CNC(=O)C3CCC4(CCC4)C3)CCO2)c1` (stereo partly drawn) [Example 102, N-[[(2S)-2-(3-cyanophenyl)oxetan-2-yl]methyl]spiro[3.4]octane-7-carboxamide]: the EC50 came to 3010 nM.

`N#Cc1cccc([C@]2(CNC(=O)C3CC3C3CCC(F)(F)CC3)CCO2)c1` (stereo partly drawn) [Example 136, N-[[(2S)-2-(3-cyanophenyl)oxetan-2-yl]methyl]-2-(4,4-difluorocyclohexyl)cyclopropanecarboxamide]: the EC50 worked out at 400 nM.

For the molecule `N#CCO[C@H](CNC(=O)[C@H]1C[C@@H]1c1ccccc1)c1cccc(Cl)c1` [Example 70, (1S,2S)—N-[(2S)-2-(3-chlorophenyl)-2-(cyanomethoxy)ethyl]-2-phenyl-cyclopropanecarboxamide], the EC50 stood at 650 nM.

`COC(CNC(=O)Nc1cccc(C)c1)c1cccc(Cl)c1` (stereo not drawn) [Example 22, 1-[2-(3-chlorophenyl)-2-methoxy-ethyl]-3-(m-tolyl)urea]: the half-maximal effective concentration (EC50) turned out to be 1990 nM.

For `COC(C)(CNC(=O)NCc1cccs1)c1cccc(Cl)c1` (stereo not drawn) [Example 33, 1-[2-(3-chlorophenyl)-2-methoxy-propyl]-3-(2-thienylmethyl)urea], the EC50 came to 1860 nM.

On to `N#Cc1cccc([C@@]2(CNC(=O)C3CC4CCC3CC4)CCO2)c1` (stereo partly drawn) [Example 98, N-[[(2R)-2-(3-cyanophenyl)oxetan-2-yl]methyl]bicyclo[2.2.2]octane-2-carboxamide], for which the EC50 was 6650 nM.

Consider `N#Cc1cccc([C@]2(CNC(=O)C3CC4(C3)CC43CCC3)CCO2)c1` (stereo partly drawn) [Example 105, N-[[(2S)-2-(3-cyanophenyl)oxetan-2-yl]methyl]dispiro[3.0.3^5.1^4]nonane-7-carboxamide], for which the EC50 amounted to 910 nM.

Consider `O=C(NCC1(c2ccnc(OC(F)F)c2)CCO1)[C@H]1C[C@@H]1C(F)(F)F` (stereo partly drawn) [Example 129, (1S,2S)—N-[[2-[2-(difluoromethoxy)-4-pyridyl]oxetan-2-yl]methyl]-2-(trifluoromethyl)cyclopropanecarboxamide], for which the EC50 came out at 4240 nM.
